The results in this text go back to ChEMBL document CHEMBL5042497, “Design, synthesis, and biological evaluation of carbamate derivatives of N-salicyloyl tryptamine as multifunctional agents for the treatment of Alzheimer's disease” (Eur J Med Chem, 2022).

Activity calls are given as the source filed them. The calls are words filed in the database; no cut-off is given here. Bounds are passed on as bounds.

Experiment [1] has as its system BV-2. Description: cells. Conditions: Mus musculus, BV-2, 24 h. It is filed as functional, cell-based.
Description: Cytotoxicity against mouse BV-2 cells assessed as reduction in cell viability measured after 24 hrs by MTT assay
Experiment [2] deals with Acetylcholinesterase (Electrophorus electricus, UniProt O42275). Description: Inhibition of electric eel AChE using acetylthiocholine iodide as substrate preincubated for 10 mins followed by substrate addition and measured for 15 mins by Ellman's method. (Ellman's reagent forms a yellow product with free thiols.)
Acetylcholinesterase (Electrophorus electricus, UniProt O42275), sequence (O42275 whole entry): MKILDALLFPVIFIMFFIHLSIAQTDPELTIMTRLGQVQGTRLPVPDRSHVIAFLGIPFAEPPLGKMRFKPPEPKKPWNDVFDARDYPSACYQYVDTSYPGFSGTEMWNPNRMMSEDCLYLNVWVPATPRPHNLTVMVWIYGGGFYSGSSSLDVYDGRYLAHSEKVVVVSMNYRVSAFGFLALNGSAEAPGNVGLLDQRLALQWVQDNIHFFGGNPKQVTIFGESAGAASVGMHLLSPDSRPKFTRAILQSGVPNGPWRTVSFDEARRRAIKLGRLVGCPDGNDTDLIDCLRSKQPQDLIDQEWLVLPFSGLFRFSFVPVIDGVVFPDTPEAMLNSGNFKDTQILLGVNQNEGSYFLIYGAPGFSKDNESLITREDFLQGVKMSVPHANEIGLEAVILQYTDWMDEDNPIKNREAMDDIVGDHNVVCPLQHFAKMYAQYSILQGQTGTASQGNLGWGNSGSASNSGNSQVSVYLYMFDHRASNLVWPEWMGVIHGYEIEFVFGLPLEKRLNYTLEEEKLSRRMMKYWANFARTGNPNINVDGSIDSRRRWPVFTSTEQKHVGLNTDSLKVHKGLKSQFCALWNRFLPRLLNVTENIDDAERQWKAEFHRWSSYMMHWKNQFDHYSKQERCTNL
The subject of experiment [3] is HT-22. Briefly: cells. It is filed as functional, cell-based. Conditions: Mus musculus, HT-22, 24 h.
Description: Cytotoxicity against mouse HT-22 cells assessed as reduction in cell viability measured after 24 hrs by MTT assay
In experiment [4] the target is Cholinesterase (Equus caballus, UniProt P81908). Briefly: Inhibition of equine serum BChE using butyrylthiocholine iodide as substrate preincubated for 10 mins followed by substrate addition and measured after 15 mins by Ellman's method.
Cholinesterase (Equus caballus, UniProt P81908), sequence (P81908 whole entry): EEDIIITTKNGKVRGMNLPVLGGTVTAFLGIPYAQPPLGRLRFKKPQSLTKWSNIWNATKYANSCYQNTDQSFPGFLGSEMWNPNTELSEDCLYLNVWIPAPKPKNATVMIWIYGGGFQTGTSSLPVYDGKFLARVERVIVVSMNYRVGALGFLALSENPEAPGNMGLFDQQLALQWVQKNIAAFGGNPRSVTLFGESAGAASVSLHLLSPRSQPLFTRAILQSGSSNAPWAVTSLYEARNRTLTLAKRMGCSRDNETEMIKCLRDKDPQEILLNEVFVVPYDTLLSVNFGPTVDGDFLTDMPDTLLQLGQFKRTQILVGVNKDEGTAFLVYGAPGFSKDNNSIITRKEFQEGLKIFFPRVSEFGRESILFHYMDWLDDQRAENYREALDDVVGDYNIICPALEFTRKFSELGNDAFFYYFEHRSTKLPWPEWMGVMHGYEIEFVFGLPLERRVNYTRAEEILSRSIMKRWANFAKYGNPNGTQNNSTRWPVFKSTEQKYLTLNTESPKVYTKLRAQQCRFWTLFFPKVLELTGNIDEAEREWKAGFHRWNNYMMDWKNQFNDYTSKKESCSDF
Experiment [5] addresses Acetylcholinesterase (Homo sapiens, UniProt P22303). Briefly: Inhibition of AChE (unknown origin).
Experiment [6] concerns the target Cholinesterase (Homo sapiens, UniProt P06276). Description: Inhibition of BuChE (unknown origin).
Experiment [7] has as its system Mus musculus. Briefly: Anti-alzheimer activity against scopolamine-induced cognitive dysfunction mouse model assessed as change in neuron damage in hippocampal CA3 region at 5 mg/kg, po measured after 10 days by Nissl staining based assay. It is filed as functional, organism-based. Conditions: time 10.0 day.
The test system of experiment [8] is BV-2. Briefly: Anti-neuroinflammation in mouse BV-2 cells assessed as decrease in LPS-induced iNOS activity at 1.25 umol/L by fluorescence based assay. It is filed as functional, cell-based. Conditions: dose 1.25 µmol/L.
In experiment [9] the test system is Mus musculus. Briefly: Anti-alzheimer activity against scopolamine-induced cognitive dysfunction mouse model assessed as […] of AChE activity in hippocampus at 5 mg/kg, po measured after 10 days by colorimetric analysis. It is filed as functional, organism-based. Conditions: time 10.0 day.
For experiment [10], the system named is Mus musculus. Briefly: Anti-alzheimer activity against scopolamine-induced cognitive dysfunction mouse model assessed as change in neuron damage in hippocampal CA1 region at 5 mg/kg, po measured after 10 days by Nissl staining based assay. It is filed as functional, organism-based. Conditions: time 10.0 day.
Experiment [11] has as its system BV-2. Briefly: Anti-neuroinflammation in mouse BV-2 cells assessed as decrease in LPS-induced TNF-alpha production at 1.25 umol/L measured after 24 hrs by ELISA. It is filed as functional, cell-based. Conditions: dose 1.25 µmol/L. Background: ELISA stands for enzyme-linked immunosorbent assay.
Experiment [12] deals with BV-2. Description: Anti-neuroinflammation in mouse BV-2 cells assessed as decrease in LPS-induced IL-6 production at 1.25 umol/L measured after 24 hrs by ELISA. It is filed as functional, cell-based. Conditions: dose 1.25 µmol/L.
In experiment [13] the test system is BV-2. Briefly: Anti-neuroinflammation in mouse BV-2 cells assessed as inhibition of LPS-induced NO production at 100 to 3.125 umol/L measured after 24 hrs by Griess method. It is filed as functional, cell-based. Conditions: dose 100-3.125 µmol/L. A general note: Griess reagent forms a coloured azo dye with nitrite.
The subject of experiment [14] is BV-2. Description: Anti-neuroinflammation in mouse BV-2 cells assessed as decrease in LPS-induced TNF-alpha production at 12.5 umol/L measured after 24 hrs by ELISA. Conditions: dose 12.5 µmol/L. It is filed as functional, cell-based.
In experiment [15] the test system is Mus musculus. Description: Anti-alzheimer activity against scopolamine-induced cognitive dysfunction mouse model assessed as change in neuron damage in hippocampal CA3 region at 50 to 100 mg/kg, po measured after 10 days by Nissl staining based assay. It is filed as functional, organism-based. Conditions: Hippocampus, dose 50-100 mg/kg, time 10.0 day.
The test system of experiment [16] is Mus musculus. Description: Anti-alzheimer activity against scopolamine-induced cognitive dysfunction mouse model assessed as change in neuron damage in hippocampal CA1 region at 50 to 100 mg/kg, po measured after 10 days by Nissl staining based assay. It is filed as functional, organism-based. Conditions: Hippocampus, dose 50-100 mg/kg, time 10.0 day.
For experiment [17], the target named is Amyloid-beta precursor protein (Homo sapiens) (UniProt P05067). Briefly: Inhibition of amyloid beta (1 to 42 ) (unknown origin) aggregation at 20 umol/L incubated for 24 hrs by thioflavin-T fluorescence method relative to control. Conditions: dose 20.0 µmol/L.
Amyloid-beta precursor protein (Homo sapiens), sequence (P05067 whole entry): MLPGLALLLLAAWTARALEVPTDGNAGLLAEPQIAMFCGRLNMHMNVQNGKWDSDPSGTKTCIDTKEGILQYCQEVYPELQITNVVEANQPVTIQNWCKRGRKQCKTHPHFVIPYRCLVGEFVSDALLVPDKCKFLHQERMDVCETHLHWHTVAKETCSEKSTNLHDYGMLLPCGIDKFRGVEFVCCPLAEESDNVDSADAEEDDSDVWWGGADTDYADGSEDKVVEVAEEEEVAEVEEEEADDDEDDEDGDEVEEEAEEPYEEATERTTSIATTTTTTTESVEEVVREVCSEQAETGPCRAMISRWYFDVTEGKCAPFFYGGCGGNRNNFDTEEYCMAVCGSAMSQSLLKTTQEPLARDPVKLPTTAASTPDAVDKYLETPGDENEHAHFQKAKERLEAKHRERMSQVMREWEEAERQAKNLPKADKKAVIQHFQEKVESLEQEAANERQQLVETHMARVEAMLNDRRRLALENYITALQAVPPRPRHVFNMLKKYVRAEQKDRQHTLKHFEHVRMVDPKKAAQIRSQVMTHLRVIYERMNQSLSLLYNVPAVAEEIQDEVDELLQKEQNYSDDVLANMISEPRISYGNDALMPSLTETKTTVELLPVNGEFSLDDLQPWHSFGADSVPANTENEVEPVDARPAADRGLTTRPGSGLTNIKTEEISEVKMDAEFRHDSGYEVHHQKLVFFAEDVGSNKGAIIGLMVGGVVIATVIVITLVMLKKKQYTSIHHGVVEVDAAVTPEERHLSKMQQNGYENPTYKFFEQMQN
In experiment [18] the test system is BV-2. Description: Anti-neuroinflammation in mouse BV-2 cells assessed as decrease in LPS-induced iNOS activity at 12.5 umol/L by fluorescence based assay. Conditions: dose 12.5 µmol/L. It is filed as functional, cell-based.
For experiment [19], the system named is Mus musculus. Briefly: Anti-alzheimer activity against scopolamine-induced cognitive dysfunction mouse model assessed as […] of AChE activity in hippocampus at 50 to 100 mg/kg, po dosed for 10 days by colorimetric analysis. It is filed as functional, organism-based. Conditions: dose 50-100 mg/kg, time 10.0 day.
Experiment [20] concerns BV-2. Description: Anti-neuroinflammation in mouse BV-2 cells assessed as decrease in LPS-induced IL-6 production at 12.5 umol/L measured after 24 hrs by ELISA. It is filed as functional, cell-based. Conditions: dose 12.5 µmol/L.

Cholinesterase (Homo sapiens, UniProt P06276), sequence (P06276 whole entry): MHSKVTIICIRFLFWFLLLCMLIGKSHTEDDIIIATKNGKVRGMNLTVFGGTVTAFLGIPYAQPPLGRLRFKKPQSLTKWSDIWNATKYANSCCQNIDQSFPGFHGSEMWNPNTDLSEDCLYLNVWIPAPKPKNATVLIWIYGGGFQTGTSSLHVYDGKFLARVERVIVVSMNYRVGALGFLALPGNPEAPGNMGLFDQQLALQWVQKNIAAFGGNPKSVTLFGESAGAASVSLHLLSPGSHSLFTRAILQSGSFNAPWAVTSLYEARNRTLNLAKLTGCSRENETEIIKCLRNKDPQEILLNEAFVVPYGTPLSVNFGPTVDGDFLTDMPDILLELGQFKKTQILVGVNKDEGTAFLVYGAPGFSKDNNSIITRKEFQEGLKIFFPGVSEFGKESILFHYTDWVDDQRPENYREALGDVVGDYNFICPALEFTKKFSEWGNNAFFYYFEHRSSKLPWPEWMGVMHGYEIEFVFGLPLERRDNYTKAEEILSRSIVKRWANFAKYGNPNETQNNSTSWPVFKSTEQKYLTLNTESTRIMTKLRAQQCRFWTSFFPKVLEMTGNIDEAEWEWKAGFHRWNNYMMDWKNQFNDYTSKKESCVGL
Acetylcholinesterase (Homo sapiens, UniProt P22303), sequence (P22303 whole entry): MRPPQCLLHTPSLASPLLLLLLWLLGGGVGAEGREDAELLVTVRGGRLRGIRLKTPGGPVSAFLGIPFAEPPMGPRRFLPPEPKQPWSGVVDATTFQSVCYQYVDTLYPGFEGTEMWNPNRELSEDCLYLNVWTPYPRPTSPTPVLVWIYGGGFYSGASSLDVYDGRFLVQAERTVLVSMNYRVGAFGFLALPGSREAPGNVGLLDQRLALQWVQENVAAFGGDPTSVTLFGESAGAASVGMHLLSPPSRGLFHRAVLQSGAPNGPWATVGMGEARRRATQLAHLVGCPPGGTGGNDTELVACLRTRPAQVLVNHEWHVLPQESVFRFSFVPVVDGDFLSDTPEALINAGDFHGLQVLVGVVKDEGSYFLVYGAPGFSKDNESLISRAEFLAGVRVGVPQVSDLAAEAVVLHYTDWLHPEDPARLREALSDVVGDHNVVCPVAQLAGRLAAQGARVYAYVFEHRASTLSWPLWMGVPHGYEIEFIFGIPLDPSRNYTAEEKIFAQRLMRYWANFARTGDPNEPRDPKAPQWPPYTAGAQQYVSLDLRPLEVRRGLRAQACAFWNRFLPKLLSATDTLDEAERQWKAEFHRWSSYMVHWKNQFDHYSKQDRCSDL

Turning to `O=C(NCCc1c[nH]c2ccccc12)c1ccccc1OC(=O)N1CCc2ccccc21`, the IC50 in experiment [1] was 137 µM; in experiment [2], above 100 µM; in experiment [3], above 100 µM; in experiment [4], 30 µM.
Regarding `CN1CCN(C(=O)Oc2ccccc2C(=O)NCCc2c[nH]c3ccccc23)CC1`, the IC50 in experiment [1] was 49.7 µM; in experiment [2], 66 µM; in experiment [3] it was 92.7 µM; in [4] it was 5.14 µM.
Taken in the same sequence, the figures for `O=C(NCCc1c[nH]c2ccccc12)c1ccccc1OC(=O)N1CCCC1` were 56 µM, above 100 µM, 64.3 µM and 1.2 µM.
As for `CCCCN(CCCC)C(=O)Oc1ccccc1C(=O)NCCc1c[nH]c2ccccc12`, the IC50 in [1] worked out at 116 µM; in experiment [2], 34.9 µM; in experiment [3], 12.8 µM; in [4] it was 8.01 µM.
The like results for `CON(C)C(=O)Oc1ccc(C(=O)NCCc2c[nH]c3ccccc23)cc1` were, in that order, 30.3 µM, 3.11 µM, above 100 µM and 6.61 µM.
In the case of `CON(C)C(=O)Oc1cccc(C(=O)NCCc2c[nH]c3ccccc23)c1`, the IC50 in experiment [1] is 12.4 µM; in experiment [2], above 100 µM; in experiment [3] it was 48.3 µM; in [4], 1.27 µM.
Taken in the same sequence, the figures for `O=C(NCCc1c[nH]c2ccccc12)c1ccccc1OC(=O)N(Cc1ccccc1)Cc1ccccc1` were 137 µM, above 100 µM, above 100 µM and 15.4 µM.
Taken in the same sequence, the figures for `O=C(NCCc1c[nH]c2ccccc12)c1ccccc1OC(=O)N1CCOCC1` were 82.8 µM, above 100 µM, 97.7 µM and 10 µM.
With `CCN(CC)C(=O)Oc1ccccc1C(=O)NCCc1c[nH]c2ccccc12`, the IC50 in [1] is 32.1 µM; in experiment [2] it was 68.5 µM; in [3], 57.2 µM; in [4], 14 µM.
Consider `CN1c2ccc(OC(=O)NCC3CCCCC3)cc2[C@]2(C)CCN(CCc3ccccc3)[C@H]12`, for which the IC50 in [5] and in experiment [6] was 0.0018 µM in each case.
In the case of `O=C(NCCc1c[nH]c2ccccc12)c1ccccc1OC(=O)N1CCC1`, the IC50 was 33.3 µM in [1], above 100 µM in [2], 40.1 µM in [3] and 17 µM in [4].
In turn, `CN1CC[C@@]2(C)c3cc(OC(=O)Nc4ccccc4)ccc3N(C)[C@@H]12` [PHENSERINE] gave an IC50 in experiment [5] of 1.56 µM.
With `O=C(NCCc1c[nH]c2ccccc12)c1ccccc1OC(=O)N(c1ccccc1)c1ccccc1`, the 50% inhibitory concentration (IC50) is 126 µM in experiment [1], above 100 µM in experiment [2], above 100 µM in [3] and 4.73 µM in experiment [4].
Take `CN(C(=O)Oc1ccccc1C(=O)NCCc1c[nH]c2ccccc12)c1ccccc1`: the IC50 in [1] was 20.6 µM; in experiment [2], above 100 µM; in experiment [3], 48.5 µM; in experiment [4], 29.7 µM.
The like results for `CCCN(CCC)C(=O)Oc1ccccc1C(=O)NCCc1c[nH]c2ccccc12` were, in that order, 0.33 µM, 37.2 µM, 25.4 µM and 35.8 µM.
For `CCNC(=O)Oc1ccc2c(c1)[C@]1(C)CCOC1O2` (stereo partly specified), the IC50 in [5] and in [6] was 0.006 µM each time.
Turning to `O=C(NCCc1c[nH]c2ccccc12)c1ccccc1OC(=O)N1CCCCCC1`, the IC50 in [1] was 32.7 µM; in experiment [2] it was above 100 µM; in experiment [3], 25.1 µM; in experiment [4], 24.1 µM.
Take `O=C(NCCc1c[nH]c2ccccc12)c1ccccc1OC(=O)N1CCCCC1`: the IC50 in experiment [1] was 32.8 µM; in [2], above 100 µM; in experiment [3], 24.4 µM; in [4], above 100 µM.
Turning to `CN(C)C(=O)Oc1ccccc1C(=O)NCCc1c[nH]c2ccccc12`, the IC50 was 35.2 µM in [1], 16.7 µM in [2], 75.4 µM in experiment [3] and 3.95 µM in experiment [4].
On to `COc1cc2c(cc1OC)C(=O)C(CC1CCN(Cc3ccccc3)CC1)C2` (stereo unspecified) [DONEPEZIL], for which the outcome in experiment [7], in experiment [8], in experiment [9], in [10], in [11] and in experiment [12] was Active. The values for the IC50 in [1] and in experiment [3] were 1.54 µM and 56.4 µM, respectively.
For `O=C(NCCc1c[nH]c2ccccc12)c1ccccc1OC(=O)N1CCSCC1`, the IC50 in experiment [1] was 1.53 µM; in experiment [2], above 100 µM; in [3], above 100 µM; in experiment [4], 1.44 µM.
As to `O=C(NCCc1c[nH]c2ccccc12)c1ccccc1O`, the outcome in experiment [13], in [14], in experiment [15], in [16], in experiment [18] and in [19] was Active. The result in experiment [20] was Active. Further, the half-maximal inhibitory concentration (IC50) in experiment [1] was 26.8 µM; in experiment [2], 23.2 µM; in experiment [3] it was 101 µM; in [4] it was 15.9 µM. This compound also displayed an inhibition in experiment [17] of 19.6%.
In experiment [5], `CNC(=O)Oc1ccc2c(c1)[C@]1(C)CCOC1N2C` (stereo partly specified) yielded an IC50 of 0.004 µM.
`O=S1(=O)OC(c2ccc(O)cc2)(c2ccc(O)cc2)c2ccccc21` showed an inhibition in experiment [17] of 34.8%.
Turning to `CC(C)c1ccc(NC(=O)Oc2ccc3c(c2)[C@]2(C)CCOC2O3)cc1` (stereo partly specified), 0.027 µM corresponded to half-maximal inhibition in experiment [6] (IC50).

By IC50 is commonly meant the concentration that gives 50% inhibition. Low readings indicate greater potency in that assay, high ones weaker potency in that assay. The inhibition is the percentage by which the read-out fell short of the control. A low value points to little suppression.
